Measurements from PubChem BioAssay (NCI).
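Compound exposure: 48 hours, 5 concentrations, 96-well plates. TGI: concentration producing complete growth inhibition.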

Legend:
Experiment in all cases: NCI-60 cell line screen, 48 h
RXF 393 renal = system: RXF 393 renal
U251 CNS = system: U251 CNS
OVCAR-3 ovarian = system: OVCAR-3 ovarian
MDA-MB-231 breast = system: MDA-MB-231 breast
UACC-257 melanoma = system: UACC-257 melanoma
MOLT-4 leukemia = system: MOLT-4 leukemia
CAKI-1 renal = system: CAKI-1 renal
T-47D breast = system: T-47D breast
MCF7 breast = system: MCF7 breast
SF-295 CNS = system: SF-295 CNS
HCC-2998 colon = system: HCC-2998 colon
SNB-19 CNS = system: SNB-19 CNS
MALME-3M melanoma = system: MALME-3M melanoma
HS 578T breast = system: HS 578T breast
SNB-75 CNS = system: SNB-75 CNS
COLO 205 colon = system: COLO 205 colon
DU-145 prostate = system: DU-145 prostate
OVCAR-8 ovarian = system: OVCAR-8 ovarian
HOP-62 NSCLC = system: HOP-62 NSCLC
K-562 leukemia = system: K-562 leukemia
LOX IMVI melanoma = system: LOX IMVI melanoma
HCT-116 colon = system: HCT-116 colon
HT29 colon = system: HT29 colon
SW-620 colon = system: SW-620 colon
EKVX NSCLC = system: EKVX NSCLC
SK-MEL-5 melanoma = system: SK-MEL-5 melanoma
RPMI-8226 leukemia = system: RPMI-8226 leukemia
KM12 colon = system: KM12 colon
IGROV1 ovarian = system: IGROV1 ovarian
NCI-H522 lung = system: NCI-H522 lung
ACHN renal = system: ACHN renal
SF-539 CNS = system: SF-539 CNS
HL-60(TB) leukemia = system: HL-60(TB) leukemia
NCI/ADR-RES ovarian = system: NCI/ADR-RES ovarian
NCI-H460 lung = system: NCI-H460 lung
UO-31 renal = system: UO-31 renal
OVCAR-5 ovarian = system: OVCAR-5 ovarian
786-0 renal = system: 786-0 renal
NCI-H23 lung = system: NCI-H23 lung
A549 NSCLC = system: A549 NSCLC
NCI-H226 lung = system: NCI-H226 lung
MDA-MB-435 = system: MDA-MB-435
CCRF-CEM leukemia = system: CCRF-CEM leukemia
UACC-62 melanoma = system: UACC-62 melanoma
PC-3 prostate = system: PC-3 prostate
SR leukemia = system: SR leukemia
HCT-15 colon = system: HCT-15 colon
SF-268 CNS = system: SF-268 CNS
TK-10 renal = system: TK-10 renal
SN12C renal = system: SN12C renal
SK-MEL-28 melanoma = system: SK-MEL-28 melanoma
MDA-N = system: MDA-N
SK-OV-3 ovarian = system: SK-OV-3 ovarian
SK-MEL-2 melanoma = system: SK-MEL-2 melanoma
M14 melanoma = system: M14 melanoma
A498 renal = system: A498 renal
BT-549 breast = system: BT-549 breast
HOP-92 NSCLC = system: HOP-92 NSCLC
OVCAR-4 ovarian = system: OVCAR-4 ovarian

## O=C(O)c1ccc(Nc2cnc3cc(C(F)(F)F)ccc3n2)cc1
RXF 393 renal
  TGI: > 100 µM
U251 CNS
  TGI: > 100 µM
OVCAR-3 ovarian
  TGI: > 100 µM
MDA-MB-231 breast
  TGI: > 100 µM
UACC-257 melanoma
  TGI: > 100 µM
MOLT-4 leukemia
  TGI: > 100 µM
CAKI-1 renal
  TGI: > 100 µM
T-47D breast
  TGI: 53.8 µM
MCF7 breast
  TGI: > 100 µM
SF-295 CNS
  TGI: > 100 µM
HCC-2998 colon
  TGI: 80.7 µM
SNB-19 CNS
  TGI: > 100 µM
MALME-3M melanoma
  TGI: > 100 µM
HS 578T breast
  TGI: > 100 µM
SNB-75 CNS
  TGI: > 100 µM
COLO 205 colon
  TGI: > 100 µM
DU-145 prostate
  TGI: > 100 µM
OVCAR-8 ovarian
  TGI: > 100 µM
HOP-62 NSCLC
  TGI: > 100 µM
K-562 leukemia
  TGI: > 100 µM
LOX IMVI melanoma
  TGI: > 100 µM
HCT-116 colon
  TGI: > 100 µM
HT29 colon
  TGI: > 100 µM
SW-620 colon
  TGI: > 100 µM
EKVX NSCLC
  TGI: > 100 µM
SK-MEL-5 melanoma
  TGI: > 100 µM
RPMI-8226 leukemia
  TGI: > 100 µM
KM12 colon
  TGI: > 100 µM
IGROV1 ovarian
  TGI: > 100 µM
NCI-H522 lung
  TGI: 60.6 µM
ACHN renal
  TGI: > 100 µM
SF-539 CNS
  TGI: > 100 µM
HL-60(TB) leukemia
  TGI: > 100 µM
NCI/ADR-RES ovarian
  TGI: > 100 µM
NCI-H460 lung
  TGI: > 100 µM
UO-31 renal
  TGI: > 100 µM
OVCAR-5 ovarian
  TGI: > 100 µM
786-0 renal
  TGI: > 100 µM
NCI-H23 lung
  TGI: > 100 µM
A549 NSCLC
  TGI: > 100 µM
NCI-H226 lung
  TGI: > 100 µM
MDA-MB-435
  TGI: > 100 µM
CCRF-CEM leukemia
  TGI: > 100 µM
UACC-62 melanoma
  TGI: 53.6 µM
PC-3 prostate
  TGI: > 100 µM
SR leukemia
  TGI: > 100 µM
HCT-15 colon
  TGI: 83.5 µM
SF-268 CNS
  TGI: > 100 µM
TK-10 renal
  TGI: > 100 µM
SN12C renal
  TGI: > 100 µM
SK-MEL-28 melanoma
  TGI: > 100 µM
MDA-N
  TGI: > 100 µM

## Nc1ccc(C2SCC(=O)N2NS(=O)(=O)c2cccc(C(=O)O)c2)cc1 (stereo not given)
SK-OV-3 ovarian
  TGI: > 100 µM
RXF 393 renal
  TGI: > 100 µM
U251 CNS
  TGI: > 100 µM
OVCAR-3 ovarian
  TGI: > 100 µM
MDA-MB-231 breast
  TGI: > 100 µM
UACC-257 melanoma
  TGI: > 100 µM
MOLT-4 leukemia
  TGI: > 100 µM
CAKI-1 renal
  TGI: > 100 µM
T-47D breast
  TGI: > 100 µM
MCF7 breast
  TGI: > 100 µM
SF-295 CNS
  TGI: > 100 µM
HCC-2998 colon
  TGI: > 100 µM
SNB-19 CNS
  TGI: > 100 µM
SK-MEL-2 melanoma
  TGI: > 100 µM
MALME-3M melanoma
  TGI: 55.7 µM
HS 578T breast
  TGI: > 100 µM
SNB-75 CNS
  TGI: > 100 µM
COLO 205 colon
  TGI: > 100 µM
DU-145 prostate
  TGI: > 100 µM
OVCAR-8 ovarian
  TGI: > 100 µM
HOP-62 NSCLC
  TGI: > 100 µM
K-562 leukemia
  TGI: > 100 µM
LOX IMVI melanoma
  TGI: > 100 µM
M14 melanoma
  TGI: > 100 µM
HCT-116 colon
  TGI: > 100 µM
HT29 colon
  TGI: > 100 µM
SW-620 colon
  TGI: > 100 µM
EKVX NSCLC
  TGI: > 100 µM
SK-MEL-5 melanoma
  TGI: > 100 µM
RPMI-8226 leukemia
  TGI: > 100 µM
A498 renal
  TGI: > 100 µM
KM12 colon
  TGI: > 100 µM
IGROV1 ovarian
  TGI: > 100 µM
NCI-H522 lung
  TGI: > 100 µM
ACHN renal
  TGI: > 100 µM
SF-539 CNS
  TGI: > 100 µM
HL-60(TB) leukemia
  TGI: > 100 µM
NCI-H460 lung
  TGI: > 100 µM
UO-31 renal
  TGI: > 100 µM
OVCAR-5 ovarian
  TGI: > 100 µM
786-0 renal
  TGI: > 100 µM
BT-549 breast
  TGI: > 100 µM
NCI-H23 lung
  TGI: > 100 µM
A549 NSCLC
  TGI: > 100 µM
NCI-H226 lung
  TGI: > 100 µM
MDA-MB-435
  TGI: > 100 µM
CCRF-CEM leukemia
  TGI: > 100 µM
UACC-62 melanoma
  TGI: > 100 µM
PC-3 prostate
  TGI: > 100 µM
SR leukemia
  TGI: > 100 µM
HCT-15 colon
  TGI: > 100 µM
SF-268 CNS
  TGI: > 100 µM
TK-10 renal
  TGI: > 100 µM
HOP-92 NSCLC
  TGI: > 100 µM
SN12C renal
  TGI: > 100 µM
SK-MEL-28 melanoma
  TGI: > 100 µM
MDA-N
  TGI: > 100 µM

## CCCCCCc1cc2cc(C(=O)Nc3cccc(F)c3)c(=N)oc2cc1O
SK-OV-3 ovarian
  TGI: 13.3 µM
U251 CNS
  TGI: 6.58 µM
OVCAR-3 ovarian
  TGI: 23.7 µM
OVCAR-4 ovarian
  TGI: 12.3 µM
UACC-257 melanoma
  TGI: 11.9 µM
MOLT-4 leukemia
  TGI: 7.69 µM
CAKI-1 renal
  TGI: 10.2 µM
T-47D breast
  TGI: 7.35 µM
MCF7 breast
  TGI: 11.7 µM
SF-295 CNS
  TGI: 15.9 µM
HCC-2998 colon
  TGI: 11.6 µM
SNB-19 CNS
  TGI: 23.9 µM
SK-MEL-2 melanoma
  TGI: 5.44 µM
MALME-3M melanoma
  TGI: 8.75 µM
HS 578T breast
  TGI: 6.81 µM
COLO 205 colon
  TGI: 34.7 µM
DU-145 prostate
  TGI: 12.2 µM
OVCAR-8 ovarian
  TGI: 3.56 µM
HOP-62 NSCLC
  TGI: 17.7 µM
K-562 leukemia
  TGI: 10.5 µM
LOX IMVI melanoma
  TGI: 3.41 µM
M14 melanoma
  TGI: 11.3 µM
HCT-116 colon
  TGI: 11.1 µM
HT29 colon
  TGI: 78.6 µM
SW-620 colon
  TGI: > 100 µM
EKVX NSCLC
  TGI: 6.44 µM
SK-MEL-5 melanoma
  TGI: 2.85 µM
RPMI-8226 leukemia
  TGI: 9.4 µM
A498 renal
  TGI: 15 µM
KM12 colon
  TGI: 8.3 µM
IGROV1 ovarian
  TGI: 4 µM
NCI-H522 lung
  TGI: 5.33 µM
ACHN renal
  TGI: > 100 µM
SF-539 CNS
  TGI: 19.2 µM
HL-60(TB) leukemia
  TGI: 5.33 µM
NCI/ADR-RES ovarian
  TGI: 7.54 µM
NCI-H460 lung
  TGI: > 100 µM
UO-31 renal
  TGI: 12.4 µM
OVCAR-5 ovarian
  TGI: 48.6 µM
786-0 renal
  TGI: 11.5 µM
BT-549 breast
  TGI: 6.19 µM
NCI-H23 lung
  TGI: 5.06 µM
A549 NSCLC
  TGI: 13.4 µM
MDA-MB-435
  TGI: 6.51 µM
CCRF-CEM leukemia
  TGI: 4.97 µM
UACC-62 melanoma
  TGI: 7.04 µM
PC-3 prostate
  TGI: 14 µM
SR leukemia
  TGI: 6.29 µM
HCT-15 colon
  TGI: 5.87 µM
SF-268 CNS
  TGI: 10.6 µM
SK-MEL-28 melanoma
  TGI: 9.51 µM
MDA-N
  TGI: 11.8 µM

## COC(=O)c1c2c(cc3c1CC1(C3)Cc3cc4c(c(C(=O)OC)c3C1)CCC4)CCC2
SK-OV-3 ovarian
  TGI: > 100 µM
RXF 393 renal
  TGI: > 100 µM
U251 CNS
  TGI: > 100 µM
OVCAR-3 ovarian
  TGI: > 100 µM
OVCAR-4 ovarian
  TGI: > 100 µM
MDA-MB-231 breast
  TGI: > 100 µM
UACC-257 melanoma
  TGI: > 100 µM
MOLT-4 leukemia
  TGI: > 100 µM
T-47D breast
  TGI: > 100 µM
MCF7 breast
  TGI: > 100 µM
SF-295 CNS
  TGI: > 100 µM
HCC-2998 colon
  TGI: > 100 µM
SK-MEL-2 melanoma
  TGI: > 100 µM
MALME-3M melanoma
  TGI: > 100 µM
HS 578T breast
  TGI: > 100 µM
COLO 205 colon
  TGI: > 100 µM
OVCAR-8 ovarian
  TGI: > 100 µM
HOP-62 NSCLC
  TGI: > 100 µM
K-562 leukemia
  TGI: > 100 µM
LOX IMVI melanoma
  TGI: > 100 µM
M14 melanoma
  TGI: > 100 µM
HCT-116 colon
  TGI: > 100 µM
HT29 colon
  TGI: > 100 µM
EKVX NSCLC
  TGI: > 100 µM
SK-MEL-5 melanoma
  TGI: > 100 µM
RPMI-8226 leukemia
  TGI: > 100 µM
A498 renal
  TGI: > 100 µM
KM12 colon
  TGI: > 100 µM
IGROV1 ovarian
  TGI: > 100 µM
NCI-H522 lung
  TGI: > 100 µM
ACHN renal
  TGI: > 100 µM
SF-539 CNS
  TGI: > 100 µM
HL-60(TB) leukemia
  TGI: > 100 µM
NCI/ADR-RES ovarian
  TGI: > 100 µM
UO-31 renal
  TGI: 28.4 µM
OVCAR-5 ovarian
  TGI: > 100 µM
786-0 renal
  TGI: > 100 µM
NCI-H23 lung
  TGI: > 100 µM
A549 NSCLC
  TGI: > 100 µM
NCI-H226 lung
  TGI: > 100 µM
MDA-MB-435
  TGI: > 100 µM
CCRF-CEM leukemia
  TGI: > 100 µM
UACC-62 melanoma
  TGI: > 100 µM
PC-3 prostate
  TGI: > 100 µM
SR leukemia
  TGI: > 100 µM
TK-10 renal
  TGI: > 100 µM
HOP-92 NSCLC
  TGI: > 100 µM
SN12C renal
  TGI: > 100 µM
MDA-N
  TGI: > 100 µM
